Structures are written as SMILES. Where two headings read alike, the source gives them in different places.

Broadly, the IC50 is the point on the concentration scale where inhibition reaches its midpoint.

Assay [1] deals with HCoV-229E Mpro (Human coronavirus 229E, UniProt P0C6X1). Put plainly: HCoV-229E Mpro enzymatic inhibition assay (fluorescence). The class given is biochemical.
Assay [2] concerns the target HCoV-NL63 Mpro (Human coronavirus NL63, UniProt P0C6X5). The experiment in a line: HCoV-NL63 Mpro enzymatic inhibition assay (fluorescence). The class given is biochemical. The method in brief:
(§1)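 Recombinant Mpro from E. coli was pre-incubated with compound (3-fold, 10-point dilutions, duplicates) for 30 min at room temperature, then fluorogenic peptide substrate was added and fluorescence read at Ex/Em 340/490 nm after 60 min at 30 °C. IC50 came from four-parameter fits of background-corrected inhibition.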

Assay [3] addresses SARS-CoV-1 Mpro (Severe acute respiratory syndrome coronavirus, UniProt P0C6X7). The experiment in a line: biochemical.
Assay [4] has as its target MERS Mpro (Middle East respiratory syndrome-related coronavirus, UniProt K9N7C7). Put plainly: biochemical. The arrangement: species or system MERS-CoV.
Assay [5] has as its target HCoV-HKU1 Mpro (Human coronavirus HKU1, UniProt P0C6X2). Put plainly: HCoV-HKU1 Mpro enzymatic inhibition assay (fluorescence). The class given is biochemical. The method in brief: as §1
The target of assay [6] is HCoV-OC43 Mpro (Human coronavirus OC43, UniProt P0C6X6). The experiment in a line: HCoV-OC43 Mpro enzymatic inhibition assay (fluorescence). The class given is biochemical. The method in brief: as §1
Chain of HCoV-OC43 Mpro (P0C6X6 3247-3549 limits assumed): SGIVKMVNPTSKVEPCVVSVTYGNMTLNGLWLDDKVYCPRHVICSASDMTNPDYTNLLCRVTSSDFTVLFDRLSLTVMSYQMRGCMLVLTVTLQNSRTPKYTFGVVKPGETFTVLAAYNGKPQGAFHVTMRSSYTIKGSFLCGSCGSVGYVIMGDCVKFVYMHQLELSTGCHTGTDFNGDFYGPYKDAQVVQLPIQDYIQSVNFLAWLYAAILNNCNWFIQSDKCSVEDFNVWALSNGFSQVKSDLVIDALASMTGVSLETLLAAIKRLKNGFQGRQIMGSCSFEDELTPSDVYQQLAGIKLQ
For assay [7], the target named is SARS-CoV-2 Mpro (Severe acute respiratory syndrome coronavirus 2, UniProt P0DTD1). The experiment in a line: SARS-CoV-2 Mpro enzymatic inhibition assay (fluorescence). The class given is biochemical. The method in brief:
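A fluorescence readout (340 nm excitation, 490 nm emission) was taken after the substrate reaction ran 60 min at 30° C. Before substrate addition, E. coli-expressed protease and compound (3-fold dilutions, 10 doses, duplicates) sat together 30 min at room temperature. Percent inhibition was fitted by variable-slope nonlinear regression to give IC50.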

Where [8] appears, read: mean, 25 nM protein, 25 μM substrate, 30 min pre-incubation, 60 min at 30° C., read-out: Mpro_SARS-CoV-2 mean IC50.

Chain of HCoV-HKU1 Mpro (P0C6X2 3335-3637 limits assumed): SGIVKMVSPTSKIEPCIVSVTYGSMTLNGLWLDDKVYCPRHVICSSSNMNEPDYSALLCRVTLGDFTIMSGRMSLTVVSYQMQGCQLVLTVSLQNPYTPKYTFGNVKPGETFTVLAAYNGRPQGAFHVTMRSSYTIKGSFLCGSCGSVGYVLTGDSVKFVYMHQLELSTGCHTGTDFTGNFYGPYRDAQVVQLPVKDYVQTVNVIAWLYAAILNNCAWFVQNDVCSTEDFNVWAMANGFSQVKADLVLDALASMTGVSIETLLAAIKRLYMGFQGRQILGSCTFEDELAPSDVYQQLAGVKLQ
Chain of HCoV-229E Mpro (P0C6X1 2966-3267 limits assumed): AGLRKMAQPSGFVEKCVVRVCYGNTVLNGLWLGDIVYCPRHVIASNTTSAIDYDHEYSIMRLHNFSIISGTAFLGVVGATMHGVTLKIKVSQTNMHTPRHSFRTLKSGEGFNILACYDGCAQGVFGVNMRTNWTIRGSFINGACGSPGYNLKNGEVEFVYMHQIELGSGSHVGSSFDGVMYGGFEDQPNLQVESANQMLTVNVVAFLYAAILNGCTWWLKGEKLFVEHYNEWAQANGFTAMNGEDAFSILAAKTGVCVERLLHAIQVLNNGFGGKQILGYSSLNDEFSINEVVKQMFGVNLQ
Chain of MERS Mpro (K9N7C7 3248-3553 limits assumed): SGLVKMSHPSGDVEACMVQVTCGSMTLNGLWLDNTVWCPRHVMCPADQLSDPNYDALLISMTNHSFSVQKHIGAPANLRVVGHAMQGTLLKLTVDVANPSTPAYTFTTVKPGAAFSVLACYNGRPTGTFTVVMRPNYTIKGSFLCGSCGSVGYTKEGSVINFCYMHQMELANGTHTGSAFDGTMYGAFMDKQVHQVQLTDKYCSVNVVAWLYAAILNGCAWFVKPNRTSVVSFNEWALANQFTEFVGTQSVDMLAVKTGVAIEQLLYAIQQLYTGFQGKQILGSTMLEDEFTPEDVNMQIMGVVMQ
Chain of HCoV-NL63 Mpro (P0C6X5 2940-3242 limits assumed): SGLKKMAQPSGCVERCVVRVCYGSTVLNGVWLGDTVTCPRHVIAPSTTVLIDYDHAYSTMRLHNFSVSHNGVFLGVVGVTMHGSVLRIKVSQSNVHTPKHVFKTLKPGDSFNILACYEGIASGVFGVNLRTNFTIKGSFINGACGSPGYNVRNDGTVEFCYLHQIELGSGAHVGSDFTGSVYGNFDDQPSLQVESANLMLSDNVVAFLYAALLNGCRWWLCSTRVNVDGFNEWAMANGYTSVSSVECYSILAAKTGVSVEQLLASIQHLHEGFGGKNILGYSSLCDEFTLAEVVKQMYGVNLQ

`N#Cc1cccc2cc(C(=O)N3C[C@H](C4CCCCC4)C[C@H]3C(=O)N[C@H](C=O)C[C@@H]3CCNC3=O)[nH]c12` [Compound 75, (2S,4S)-1-(7-cyano-1H-indole-2-carbonyl)-4-cyclohexyl-N—((S)-1-oxo-3-((S)-2-oxopyrrolidin-3-yl)propan-2-yl)pyrrolidine-2-carboxamide]: the concentration for half-maximal inhibition (IC50) in assay [1] amounted to 64 nM; in assay [2], 754 nM; in assay [3], 66 nM; in assay [4], 604 nM; in assay [5] it was 16.6 nM; in assay [6], 57 nM. In addition, half-maximal inhibition in assay [7] (IC50) required 32.3 nM.

For `CC(C)(C(=O)N1C[C@H]2[C@@H]([C@H]1C(=O)N[C@H](C=O)C[C@@H]1CCNC1=O)C2(C)C)c1ccccc1` [Compound 48, (1R,2S,5S)-6,6-dimethyl-3-(2-methyl-2-phenylpropanoyl)-N—((S)-1-oxo-3-((S)-2-oxopyrrolidin-3-yl)propan-2-yl)-3-azabicyclo[3.1.0]hexane-2-carboxamide], the IC50 in assay [1] was 86.9 nM; in assay [2] it was 376 nM; in assay [3] it was 53.6 nM; in assay [4] it was 484 nM; in assay [5], 73.4 nM; in assay [6], 164 nM. Further, the IC50 in assay [7] (setting [8]) was found to be 22.9 nM.

Take `CO[C@@H]1C[C@@H](C(=O)N[C@H](C=O)C[C@@H]2CCNC2=O)N(C(=O)c2cc3ccccc3[nH]2)C1` [Compound 121, (2S,4R)-1-(1H-Indole-2-carbonyl)-4-methoxy-N—((S)-1-oxo-3-((S)-2-oxopyrrolidin-3-yl)propan-2-yl)pyrrolidine-2-carboxamide]: the IC50 worked out at 152 nM in assay [1]; 198 nM in assay [2]; 294 nM in assay [3]; 2630 nM in assay [4]; 546 nM in assay [5]; 825 nM in assay [6]. Moreover, the IC50 in assay [7] was found to be 159 nM.

For the molecule `CC1(C)[C@@H]2[C@@H](C(=O)N[C@H](C=O)C[C@@H]3CCNC3=O)N(C(=O)C3(c4cccc(Cl)c4)CC3)C[C@@H]21` [Compound 8, (1R,2S,5S)-3-(1-(3-chlorophenyl)cyclopropanecarbonyl)-6,6-dimethyl-N—((S)-1-oxo-3-((S)-2-oxopyrrolidin-3-yl)propan-2-yl)-3-azabicyclo[3.1.0]hexane-2-carboxamide], the half-maximal inhibitory concentration (IC50) in assay [1] is 21.8 nM; in assay [2], 37.6 nM; in assay [3] it was 11.9 nM; in assay [4] it was 88.7 nM; in assay [5], 7.74 nM; in assay [6] it was 18.9 nM. The molecule further registered an IC50 in assay [7] of 11.3 nM.

With `O=C[C@H](C[C@@H]1CCNC1=O)NC(=O)[C@@H]1CC2(CCC2)CN1C(=O)C1(c2ccccc2)CC1` [Compound 84, (S)—N—((S)-1-Oxo-3-((S)-2-oxopyrrolidin-3-yl)propan-2-yl)-6-(1-phenylcyclopropanecarbonyl)-6-azaspiro[3.4]octane-7-carboxamide], the IC50 in assay [1] stood at 47.6 nM; in assay [2] it was 185 nM; in assay [3], 88.3 nM; in assay [4], 703 nM; in assay [5], 17.3 nM; in assay [6], 41.2 nM. For the same molecule, the IC50 in assay [7] turned out to be 36 nM.

For the molecule `CC1(C)[C@@H]2[C@@H](C(=O)N[C@H](C=O)C[C@@H]3CCNC3=O)N(C(=O)c3cc4cccc(C#N)c4[nH]3)C[C@@H]21` [Compound 32, (1R,2S,5S)-3-(7-cyano-1H-indole-2-carbonyl)-6,6-dimethyl-N—((S)-1-oxo-3-((S)-2-oxopyrrolidin-3-yl)propan-2-yl)-3-azabicyclo[3.1.0]hexane-2-carboxamide], the IC50 was determined as 35.4 nM in assay [1]; 59.6 nM in assay [2]; 36.3 nM in assay [3]; 177 nM in assay [4]; 21.8 nM in assay [5]; 52.4 nM in assay [6]. Also, the half-inhibitory concentration (IC50) in assay [7] came to 19.7 nM.

With `CC1(C)[C@@H]2[C@@H](C(=O)N[C@H](C=O)C[C@@H]3CCNC3=O)N(C(=O)c3cc4c(F)ccc(F)c4[nH]3)C[C@@H]21` [Compound 13, (1R,2S,5S)-3-(4,7-difluoro-1H-indole-2-carbonyl)-6,6-dimethyl-N—((S)-1-oxo-3-((S)-2-oxopyrrolidin-3-yl)propan-2-yl)-3-azabicyclo[3.1.0]hexane-2-carboxamide], the IC50 in assay [1] worked out at 48.1 nM; in assay [2], 76.3 nM; in assay [3] it was 37.7 nM; in assay [4] it was 372 nM; in assay [5], 38.2 nM; in assay [6], 69 nM. For the same molecule, in assay [7], the IC50 came to 14 nM.

Consider `CC(C)c1ccc(Cl)c2[nH]c(C(=O)N3C[C@H]4[C@@H]([C@H]3C(=O)N[C@H](C=O)C[C@@H]3CCNC3=O)C4(C)C)cc12` [Compound 88, (1R,2S,5S)-3-(7-Chloro-4-isopropyl-1H-indole-2-carbonyl)-6,6-dimethyl-N—((S)-1-oxo-3-((S)-2-oxopyrrolidin-3-yl)propan-2-yl)-3-azabicyclo[3.1.0]hexane-2-carboxamide], for which the IC50 was 41.5 nM in assay [1]; 68.5 nM in assay [2]; 46.2 nM in assay [3]; 239 nM in assay [4]; 21.2 nM in assay [5]; 44.9 nM in assay [6]. Further, in assay [7] (setting [8]), the IC50 was determined as 40.3 nM.

Regarding `CC1(C)[C@@H]2[C@@H](C(=O)N[C@H](C=O)C[C@@H]3CCNC3=O)N(C(=O)c3cc4c(F)ccc(Cl)c4[nH]3)C[C@@H]21` [Compound 49, (1R,2S,5S)-3-(7-chloro-4-fluoro-1H-indole-2-carbonyl)-6,6-dimethyl-N—((S)-1-oxo-3-((S)-2-oxopyrrolidin-3-yl)propan-2-yl)-3-azabicyclo[3.1.0]hexane-2-carboxamide], the IC50 in assay [1] worked out at 31.5 nM; in assay [2], 57.6 nM; in assay [3], 29.4 nM; in assay [4], 202 nM; in assay [5], 23.4 nM; in assay [6], 37 nM. For the same molecule, the IC50 in assay [7] was found to be 23 nM.

`Cc1ccc2cc(C(=O)N3C[C@H]4[C@@H]([C@H]3C(=O)N[C@H](C=O)C[C@@H]3CCNC3=O)C4(C)C)[nH]c2c1` [Compound 72, (1R,2S,5S)-6,6-Dimethyl-3-(6-methyl-1H-indole-2-carbonyl)-N—((S)-1-oxo-3-((S)-2-oxopyrrolidin-3-yl)propan-2-yl)-3-azabicyclo[3.1.0]hexane-2-carboxamide]: the half-inhibitory concentration (IC50) in assay [1] was 30.1 nM; in assay [2], 21.7 nM; in assay [3], 58.9 nM; in assay [4], 346 nM; in assay [5] it was 20.8 nM; in assay [6], 49.4 nM. Also, in assay [7], the IC50 was 31.3 nM.

Take `N#Cc1ccc2cc(C(=O)N3CC4(CC4)C[C@H]3C(=O)N[C@H](C=O)C[C@@H]3CCNC3=O)[nH]c2c1` [Compound 82, (S)-5-(6-Cyano-1H-indole-2-carbonyl)-N—((S)-1-oxo-3-((S)-2-oxopyrrolidin-3-yl)propan-2-yl)-5-azaspiro[2.4]heptane-6-carboxamide]: the IC50 in assay [1] was determined as 26.1 nM; in assay [2], 30.1 nM; in assay [3], 35.1 nM; in assay [4], 176 nM; in assay [5], 10.6 nM; in assay [6], 33.7 nM. In assay [7], the 50% inhibitory concentration (IC50) was 35.5 nM.

Regarding `CC1(C)[C@@H]2[C@@H](C(=O)N[C@H](C=O)C[C@@H]3CCNC3=O)N(C(=O)CC3CCCC(F)(F)C3)C[C@@H]21` (stereo partly drawn) [Compound 22, (1R,2S,5S)-3-(2-(3,3-difluorocyclohexyl)acetyl)-6,6-dimethyl-N—((S)-1-oxo-3-((S)-2-oxopyrrolidin-3-yl)propan-2-yl)-3-azabicyclo[3.1.0]hexane-2-carboxamide], the IC50 in assay [1] was determined as 24.4 nM; in assay [2], 37.1 nM; in assay [3], 27.7 nM; in assay [4] it was 123 nM; in assay [5] it was 10.5 nM; in assay [6] it was 28.4 nM. Moreover, the IC50 in assay [7] amounted to 15.8 nM.

As for `CC1(C)[C@@H]2[C@@H](C(=O)N[C@H](C=O)C[C@@H]3CCNC3=O)N(C(=O)c3cc4cccc(Cl)c4[nH]3)C[C@@H]21` [Compound 5, (1R,2S,5S)-3-(7-chloro-1H-indole-2-carbonyl)-6,6-dimethyl-N—((S)-1-oxo-3-((S)-2-oxopyrrolidin-3-yl)propan-2-yl)-3-azabicyclo[3.1.0]hexane-2-carboxamide], the IC50 was 33.9 nM in assay [1]; 53.5 nM in assay [2]; 22.5 nM in assay [3]; 147 nM in assay [4]; 22 nM in assay [5]; 42.1 nM in assay [6]. Moreover, in assay [7], the IC50 was determined as 10.5 nM.

Consider `O=C[C@H](C[C@@H]1CCNC1=O)NC(=O)[C@@H]1C[C@@H]2C[C@@H]2N1C(=O)c1cc2ccccc2[nH]1` [Compound 125, (1S,3S,5S)-2-(1H-Indole-2-carbonyl)-N—((S)-1-oxo-3-((S)-2-oxopyrrolidin-3-yl)propan-2-yl)-2-azabicyclo[3.1.0]hexane-3-carboxamide], for which the IC50 in assay [1] turned out to be 116 nM; in assay [2], 218 nM; in assay [3], 685 nM; in assay [4] it was 916 nM; in assay [5] it was 154 nM; in assay [6] it was 284 nM. Inhibition in assay [7] was half-maximal at 228 nM (IC50).

(Values after US20260355212A1 (priority 2022, published 2026).)
